Like-named read-outs stand apart in the source and are kept apart here.
Key:
Format in all cases: cell-based
[1] = target: T1, GluA2 AMPA receptor subunit (flip isoform) (Homo sapiens, UniProt P42262); experiment: Whole-cell patch-clamp electrophysiology, homomeric GluA2 expressed in HEK293 cells; conditions: for Amplitude (glutamate + compound): 10 mM glutamate + 12 µM compound, −60 mV, pH 7.4, 22 °C, mean ± SEM; for Amplitude (glutamate + compound) / A/AI (current with glutamate alone / current with glutamate + compound): n = 10; for A/AI (current with glutamate alone / current with glutamate + compound): 10 mM glutamate, 12 µM compound; for IC50: Hill fit; for t deact (weighted deactivation time constant) / t des (weighted desensitization time constant): glutamate + 12 µM compound; for t deact (weighted deactivation time constant): glutamate alone 2.4±0.1 ms; for t des (weighted desensitization time constant): glutamate alone 2.6±0.1 ms
T1 construct: expressed in transfected cells; host or cells: HEK293
T1 sequence (P42262 25-883 isoform P42262-2 limits assumed): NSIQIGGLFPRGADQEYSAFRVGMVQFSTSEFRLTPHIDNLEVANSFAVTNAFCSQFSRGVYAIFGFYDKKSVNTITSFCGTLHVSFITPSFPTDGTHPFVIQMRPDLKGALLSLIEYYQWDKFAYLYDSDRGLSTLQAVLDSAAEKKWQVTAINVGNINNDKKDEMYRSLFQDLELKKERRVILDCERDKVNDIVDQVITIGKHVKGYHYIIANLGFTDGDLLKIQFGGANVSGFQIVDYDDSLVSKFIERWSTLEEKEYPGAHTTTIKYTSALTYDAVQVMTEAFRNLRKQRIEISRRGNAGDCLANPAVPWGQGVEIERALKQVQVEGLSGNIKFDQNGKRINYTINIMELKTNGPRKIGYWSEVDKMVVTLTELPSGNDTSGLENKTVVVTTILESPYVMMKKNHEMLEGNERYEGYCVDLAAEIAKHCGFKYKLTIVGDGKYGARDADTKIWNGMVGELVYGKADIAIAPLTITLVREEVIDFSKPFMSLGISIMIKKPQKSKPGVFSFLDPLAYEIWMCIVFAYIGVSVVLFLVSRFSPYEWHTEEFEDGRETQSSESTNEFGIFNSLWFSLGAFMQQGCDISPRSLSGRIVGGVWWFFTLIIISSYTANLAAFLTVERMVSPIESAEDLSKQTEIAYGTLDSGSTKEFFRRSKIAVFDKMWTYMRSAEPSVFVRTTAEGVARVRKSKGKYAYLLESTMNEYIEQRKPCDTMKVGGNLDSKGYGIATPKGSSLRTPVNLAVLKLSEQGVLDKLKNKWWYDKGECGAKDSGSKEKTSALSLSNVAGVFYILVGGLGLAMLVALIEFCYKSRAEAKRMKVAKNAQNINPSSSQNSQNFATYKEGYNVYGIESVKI
Description: (§1) Up to 20 μg of high-copy plasmid DNA was prepared using the QIAGEN Plasmid Mini Kit, the tubes were then centrifuged to extract the supernatant containing the plasmid DNA, ethanol was used to wash the DNA pellet, then centrifuged again and the supernatant was carefully removed as to not disturb the pellet, finally, the pellet was air-dried, and the DNA was re-dissolved in a suitable volume of buffer, (our prior study detailed the whole DNA preparation data). The flip isoform was used in all AMPAR subunits used in this investigation. AMPAR subunits were subcloned in pRK and expressed in the human embryonic kidney cells (HEK293) (The HEK293 cell line was obtained from Sigma, Schnelldorf, Germany). IPA (Integrated Patch Amplifier) recorded HEK293 cells 36–48 h after transfection using the patch-clamp method (Sutter Instruments, Novato, CA, USA). A high-speed piezo solution switcher was installed on a double-barreled glass (theta tube) to provide solutions fast, isolate receptor responses from any network influences, and preserve, as much as possible, the postsynaptic protein machinery. Thus, inhibition was measured by comparing the current recorded when glutamate alone was administered to the current observed when glutamate plus the compound of interest was delivered to the same cell. Before administering the α-LA compounds, experiments were conducted to determine the appropriate concentration to be delivered to the cells without harming them. Dichloromethane (12 µM) effect on GluA1 and GluA2 subunits was tested to ensure that it had no effect on AMPA receptor currents (Figure S8). The effect of α-LA compounds on AMPA subunits plateaued at a concentration of 12 µM because LA inhibits AMPA receptors at low concentrations and continues to inhibit them when LA concentrations are increased by 2 µM each interval, as shown in Figure S1. The concentration increased by 2 µM each time to ensure that no cells were harmed. The cells were washed for 20 s between α-LA derivatives (12 µM), and 10 mM glutamate was supplied alone after each α-LA compound to ensure cell health. Data analysis was carried out using Igor Pro7 (Wave Metrics, inc). For both desensitization (τw des) and deactivation rates (τw deact), an exponential fit to the current decline was obtained at 95% of peak to baseline current. The weighted tau (τw) was calculated as τw = (τf × af) + (τs × as), where af and as are the amplitudes of the fast (τf) and slow (τs) exponential components, respectively. Our study detailed the experimental data set.
(§2) Data are presented as mean ± standard error of the mean (SEM). The number of samples (n = 10) refers to the total number of tested HEK293 cells. Statistical differences between the groups and the wild type were examined by One Way Analysis of Variance (ANOVA), with values of p < 0.05 being considered to indicate statistical significance: (*) p < 0.05, (**) p < 0.01, (***) p < 0.001, ns, not significant. Concentration-response relationships were fitted as composite curves using GraphPad Prism version 6.01 (GraphPad Software, San Diego, CA, USA) to the Hill equation. All results were representative of at least three independent experiments.
(§3) Figure 2 Suppression of AMPA receptor currents by α-LA compounds. Graphs (a,c,e,g) present AMPA receptor currents (pA) before and after the administration of α-LA derivatives on GluA1, GluA1/2, GluA2, and GluA2/3 subunits. While (b,d,f,h) present the ratio A/AI, where A represents the current caused by 10 mM glutamate alone and AI represents the current induced by glutamate + α-LA (12 µM). The whole-cell current was measured at −60 mV, pH 7.4, and 22 °C. A one way analysis of variance (ANOVA) was performed for comparison: *** p < 0.001; ns, not significant. Ten cells were investigated for each LA compound. All values are shown as mean SEM.
(§4) Figure 3 The potency of LA compounds against AMPA receptor subunits. […]

[2] = target: T2, GluA2/3 AMPA receptor subunits (flip isoform) (Homo sapiens, UniProt P42262+P42263); experiment: Whole-cell patch-clamp electrophysiology, heteromeric GluA2/3 expressed in HEK293 cells; conditions: for Amplitude (glutamate + compound): 10 mM glutamate + 12 µM compound, −60 mV, pH 7.4, 22 °C, mean ± SEM; for Amplitude (glutamate + compound) / A/AI (current with glutamate alone / current with glutamate + compound): n = 10; for A/AI (current with glutamate alone / current with glutamate + compound): 10 mM glutamate, 12 µM compound; for IC50: Hill fit; for t deact (weighted deactivation time constant) / t des (weighted desensitization time constant): glutamate + 12 µM compound; for t deact (weighted deactivation time constant): glutamate alone 2.4±0.3 ms; for t des (weighted desensitization time constant): glutamate alone 2.7±0.3 ms
T2 construct: expressed in transfected cells; host or cells: HEK293
T2 sequence (P42262 25-883 isoform P42262-2 limits assumed): as above
T2 sequence (P42263 29-894 isoform P42263-2 limits assumed): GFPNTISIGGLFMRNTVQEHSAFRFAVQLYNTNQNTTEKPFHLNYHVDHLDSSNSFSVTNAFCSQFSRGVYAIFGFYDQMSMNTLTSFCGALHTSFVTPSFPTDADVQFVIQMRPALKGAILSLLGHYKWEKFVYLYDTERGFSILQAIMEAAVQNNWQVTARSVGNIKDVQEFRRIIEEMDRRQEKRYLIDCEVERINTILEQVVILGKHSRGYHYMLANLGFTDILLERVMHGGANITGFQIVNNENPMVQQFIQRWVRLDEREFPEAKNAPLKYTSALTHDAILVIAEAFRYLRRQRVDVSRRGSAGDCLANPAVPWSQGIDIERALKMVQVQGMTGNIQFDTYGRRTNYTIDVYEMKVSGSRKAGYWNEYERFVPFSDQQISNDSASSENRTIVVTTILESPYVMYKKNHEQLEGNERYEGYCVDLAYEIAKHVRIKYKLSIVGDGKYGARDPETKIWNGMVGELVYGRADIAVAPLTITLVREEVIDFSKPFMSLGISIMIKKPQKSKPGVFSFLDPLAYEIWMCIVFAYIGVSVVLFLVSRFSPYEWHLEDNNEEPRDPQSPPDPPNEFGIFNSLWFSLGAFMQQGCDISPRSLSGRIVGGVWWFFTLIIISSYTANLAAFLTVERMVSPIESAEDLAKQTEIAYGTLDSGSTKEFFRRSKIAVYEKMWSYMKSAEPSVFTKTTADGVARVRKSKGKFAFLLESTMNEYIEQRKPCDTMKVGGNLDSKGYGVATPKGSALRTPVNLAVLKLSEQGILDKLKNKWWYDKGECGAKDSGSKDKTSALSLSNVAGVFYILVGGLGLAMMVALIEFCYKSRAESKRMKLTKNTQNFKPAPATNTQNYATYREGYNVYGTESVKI
Description: as §1, §2, §3, §4

[3] = target: T3, GluA1/2 AMPA receptor subunits (flip isoform) (Homo sapiens, UniProt P42261+P42262); experiment: Whole-cell patch-clamp electrophysiology, heteromeric GluA1/2 expressed in HEK293 cells; conditions: for Amplitude (glutamate + compound): 10 mM glutamate + 12 µM compound, −60 mV, pH 7.4, 22 °C, mean ± SEM; for Amplitude (glutamate + compound) / A/AI (current with glutamate alone / current with glutamate + compound): n = 10; for A/AI (current with glutamate alone / current with glutamate + compound): 10 mM glutamate, 12 µM compound; for IC50: Hill fit; for t deact (weighted deactivation time constant) / t des (weighted desensitization time constant): glutamate + 12 µM compound; for t deact (weighted deactivation time constant): glutamate alone 2.5±0.3 ms; for t des (weighted desensitization time constant): glutamate alone 5.3±0.4 ms
T3 construct: expressed in transfected cells; host or cells: HEK293
T3 sequence (P42261 19-906 isoform P42261-2 limits assumed): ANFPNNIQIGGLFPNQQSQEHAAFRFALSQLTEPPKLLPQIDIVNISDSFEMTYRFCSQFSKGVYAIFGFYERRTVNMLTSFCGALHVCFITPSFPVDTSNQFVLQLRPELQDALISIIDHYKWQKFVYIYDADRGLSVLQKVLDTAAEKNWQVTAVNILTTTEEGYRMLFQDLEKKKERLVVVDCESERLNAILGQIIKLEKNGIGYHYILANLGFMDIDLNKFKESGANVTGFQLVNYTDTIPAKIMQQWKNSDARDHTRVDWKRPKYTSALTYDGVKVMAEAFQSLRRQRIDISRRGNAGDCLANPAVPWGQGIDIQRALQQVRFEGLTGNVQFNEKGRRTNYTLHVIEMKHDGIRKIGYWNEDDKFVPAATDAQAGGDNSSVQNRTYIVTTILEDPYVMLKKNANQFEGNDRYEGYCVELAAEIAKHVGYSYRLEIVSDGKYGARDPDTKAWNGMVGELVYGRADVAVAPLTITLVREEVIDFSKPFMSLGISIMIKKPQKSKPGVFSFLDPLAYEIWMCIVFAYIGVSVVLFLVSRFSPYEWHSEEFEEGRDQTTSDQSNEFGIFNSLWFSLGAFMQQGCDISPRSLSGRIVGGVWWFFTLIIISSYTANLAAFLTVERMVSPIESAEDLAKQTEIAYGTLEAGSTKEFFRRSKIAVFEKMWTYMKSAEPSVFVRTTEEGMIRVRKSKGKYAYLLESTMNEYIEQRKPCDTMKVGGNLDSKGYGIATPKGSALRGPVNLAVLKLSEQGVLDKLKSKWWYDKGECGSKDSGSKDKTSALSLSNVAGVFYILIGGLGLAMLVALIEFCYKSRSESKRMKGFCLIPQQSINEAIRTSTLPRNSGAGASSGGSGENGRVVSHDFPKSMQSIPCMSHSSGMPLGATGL
T3 sequence (P42262 25-883 isoform P42262-2 limits assumed): as the sequence (P42262 25-883 isoform P42262-2 limits assumed) above
Description: as §1, §2, §3, §4

[4] = target: T4, GluA1 AMPA receptor subunit (flip isoform) (Homo sapiens, UniProt P42261); experiment: Whole-cell patch-clamp electrophysiology, homomeric GluA1 expressed in HEK293 cells; conditions: for Amplitude (glutamate + compound): 10 mM glutamate + 12 µM compound, −60 mV, pH 7.4, 22 °C, mean ± SEM; for Amplitude (glutamate + compound) / A/AI (current with glutamate alone / current with glutamate + compound): n = 10; for A/AI (current with glutamate alone / current with glutamate + compound): 10 mM glutamate, 12 µM compound; for IC50: Hill fit; for t deact (weighted deactivation time constant) / t des (weighted desensitization time constant): glutamate + 12 µM compound; for t deact (weighted deactivation time constant): glutamate alone 2.2±0.1 ms; for t des (weighted desensitization time constant): glutamate alone 2.3±0.1 ms
T4 construct: expressed in transfected cells; host or cells: HEK293
T4 sequence (P42261 19-906 isoform P42261-2 limits assumed): as the sequence (P42261 19-906 isoform P42261-2 limits assumed) above
Description: as §1, §2, §3, §4

[5] = system: AMPA receptor subunits (GluA1, GluA2, GluA1/2, GluA2/3); experiment: Whole-cell patch-clamp electrophysiology, summary over the AMPA receptor subunits in HEK293 cells; conditions: for decrease in the peak current of the AMPARs / increase of the rate of AMPA receptor deactivation (τw deact) / reduction in the rate of desensitization (τw des): all AMPA receptor subunits, 12 µM compound; for IC50: over GluA1, GluA1/2, GluA2, GluA2/3, read-out: approximate IC50 against AMPA receptor subunits
Description: as §1, §2
The levels of inhibition of α-LA and its derivatives attracted our attention to assessing the potency of the compounds in a concentration-dependent manner. […] The concentration−inhibition curves were produced by administering glutamate alone at a concentration of 10 mM, followed by glutamate + α-LA derivatives at varying concentrations (in μM) for every recording point. Afterward, the cells were normalized back by administering glutamate alone. Since the glutamate concentration in the synaptic cleft constantly saturates the receptors, driving the response to a near maximum level, variability occurs because the maximum level changes. […]

[6] = whole-cell normalized peak amplitude, unit printed in the text, not in Table S6, read-out: IC50

Row | Amplitude (glutamate + compound) [1] | A/AI (current with glutamate alone / current with glutamate + compound) [1] | IC50 ([1]; read-out: Log IC50 (converted)) | t deact (weighted deactivation time constant) [1] | IC50 [1, 6] | Amplitude (glutamate + compound) [2] | A/AI (current with glutamate alone / current with glutamate + compound) [2] | IC50 ([2]; read-out: Log IC50 (converted)) | t deact (weighted deactivation time constant) [2] | IC50 [2, 6] | Amplitude (glutamate + compound) [3] | A/AI (current with glutamate alone / current with glutamate + compound) [3] | IC50 ([3]; read-out: Log IC50 (converted)) | t deact (weighted deactivation time constant) [3] | IC50 [3, 6] | Amplitude (glutamate + compound) [4] | A/AI (current with glutamate alone / current with glutamate + compound) [4] | SMILES | t des (weighted desensitization time constant) [1] | t des (weighted desensitization time constant) [2] | t des (weighted desensitization time constant) [3] | further results
1 | 155±25 pA | 7.91±0.7 | 4.37 µM | 7.7 ± 0.3 ms | 4.37 µM | 71±14.0 pA | 7.84±0.9 | 4.47 µM | 7.6 ± 0.7 ms | 4.46 µM | 81±12.0 pA | 8.05±0.8 | 4.37 µM | 7.9 ± 0.67 ms | 4.33 µM | 114±12.0 pA | 8.13±0.6 | O=C(CCCCC1CCSS1)OCCCCCCO[N+](=O)[O-] (stereo not drawn) [LA3, 1-Nitrooxy–Hexane-6-lipoyl ester] | 1.8 ± 0.04 ms | 1.9 ± 0.1 ms | 3.6 ± 0.2 ms | IC50 ([4]; read-out: Log IC50 (converted)): 3.63 µM; t deact (weighted deactivation time constant) [4]: 8.1 ± 0.4 ms; t des (weighted desensitization time constant) [4]: 1.7 ± 0.1 ms; IC50 [4, 6]: 3.59 µM; decrease in the peak current of the AMPARs [5]: roughly 8 fold; increase of the rate of AMPA receptor deactivation (τw deact) [5]: roughly 3 fold
2 | 112±17.0 pA | 11.16±0.7 | 3.55 µM | 10.9 ± 0.7 ms | 3.51 µM | 46±7.0 pA | 11.03±1.0 | 3.63 µM | 10.8 ± 0.9 ms | 3.61 µM | 57±8.0 pA | 11.34±0.9 | 3.39 µM | 11.1 ± 0.9 ms | 3.41 µM | 79±11.0 pA | 11.53±0.8 | O=C(CCCCC1CCSS1)OCCCO[N+](=O)[O-] (stereo not drawn) [LA2, 1-Nitrooxy–propane-3-lipoyl ester] | 0.8 ± 0.08 ms | 0.9 ± 0.09 ms | 2.7 ± 0.2 ms | IC50 ([4]; read-out: Log IC50 (converted)): 3.39 µM; t deact (weighted deactivation time constant) [4]: 11.6 ± 0.7 ms; t des (weighted desensitization time constant) [4]: 0.6 ± 0.1 ms; IC50 [4, 6]: 3.35 µM; decrease in the peak current of the AMPARs [5]: ~11 fold; increase of the rate of AMPA receptor deactivation (τw deact) [5]: approximately 5 fold; reduction in the rate of desensitization (τw des) [5]: 3–4 fold; IC50 [5]: ~3.5 µM
3 | 124±19.0 pA | 10.22±0.8 | 3.63 µM | 10.4 ± 0.9 ms | 3.63 µM | 52±8.0 pA | 10.14±1.0 | 3.8 µM | 10.1 ± 0.6 ms | 3.8 µM | 60±9.0 pA | 10.32±1.0 | 3.55 µM | 10.1 ± 0.7 ms | 3.54 µM | 89±12.0 pA | 10.43±0.7 | O=C(CCCCC1CCSS1)OCCCO (stereo not drawn) [LA1, 1-Hydroxy-3-Lipo Ester] | 1.0 ± 0.06 ms | 1.2 ± 0.09 ms | 2.8 ± 0.3 ms | IC50 ([4]; read-out: Log IC50 (converted)): 3.47 µM; t deact (weighted deactivation time constant) [4]: 9.5 ± 0.5 ms; t des (weighted desensitization time constant) [4]: 0.8 ± 0.1 ms; IC50 [4, 6]: 3.47 µM; decrease in the peak current of the AMPARs [5]: about 10 fold; increase of the rate of AMPA receptor deactivation (τw deact) [5]: about 4 fold; reduction in the rate of desensitization (τw des) [5]: 3–4 fold; IC50 [5]: 3.5 to 3.8 µM
4 | 166±28 pA | 7.65±0.5 | 4.47 µM | 7.1 ± 0.4 ms | 4.47 µM | 72±15.0 pA | 7.58±0.7 | 4.79 µM | 6.9 ± 0.5 ms | 4.76 µM | 87±13.0 pA | 7.70±0.7 | 4.37 µM | 7.4 ± 0.4 ms | 4.41 µM | 121±18 pA | 7.79±0.5 | O=C(CCCCC1CCSS1)OCCCCCCO (stereo not drawn) [LA4, 1-Hydroxy-6-Lipoester] | 1.9 ± 0.07 ms | 2.0 ± 0.1 ms | 3.7 ± 0.3 ms | IC50 ([4]; read-out: Log IC50 (converted)): 4.17 µM; t deact (weighted deactivation time constant) [4]: 7.5 ± 0.3 ms; t des (weighted desensitization time constant) [4]: 1.8 ± 0.1 ms; IC50 [4, 6]: 4.18 µM; decrease in the peak current of the AMPARs [5]: roughly 8 fold; increase of the rate of AMPA receptor deactivation (τw deact) [5]: roughly 3 fold

— paper PMC9688225, “α-Lipoic Acid Derivatives as Allosteric Modulators for Targeting AMPA-Type Glutamate Receptors’ Gating Modules” (Cells, 2022)
